Measured values: patent publication US7307083B2, “Tetrahydro-acridine and dithiolane derivatives” (priority 2005, dated 2007)
“Also recorded” adds a separate entry of the source. Like-named read-outs stand apart in the source and are kept apart here. Marks after values point to notes of the source that are not given here. Square brackets hold non-standard residues; d marks the D form. Peptide text beside a SMILES is read from it. Sta = CC(C)C[C@H](N)[C@@H](O)CC(=O)O

Columns and labels:
[1] = biological target: human recombinant acetylcholinesterase (AChE or HuAChE) (Homo sapiens, UniProt P22303); assay: biochemical; assay type: biochemical
human recombinant acetylcholinesterase (AChE or HuAChE), sequence (P22303 32-614): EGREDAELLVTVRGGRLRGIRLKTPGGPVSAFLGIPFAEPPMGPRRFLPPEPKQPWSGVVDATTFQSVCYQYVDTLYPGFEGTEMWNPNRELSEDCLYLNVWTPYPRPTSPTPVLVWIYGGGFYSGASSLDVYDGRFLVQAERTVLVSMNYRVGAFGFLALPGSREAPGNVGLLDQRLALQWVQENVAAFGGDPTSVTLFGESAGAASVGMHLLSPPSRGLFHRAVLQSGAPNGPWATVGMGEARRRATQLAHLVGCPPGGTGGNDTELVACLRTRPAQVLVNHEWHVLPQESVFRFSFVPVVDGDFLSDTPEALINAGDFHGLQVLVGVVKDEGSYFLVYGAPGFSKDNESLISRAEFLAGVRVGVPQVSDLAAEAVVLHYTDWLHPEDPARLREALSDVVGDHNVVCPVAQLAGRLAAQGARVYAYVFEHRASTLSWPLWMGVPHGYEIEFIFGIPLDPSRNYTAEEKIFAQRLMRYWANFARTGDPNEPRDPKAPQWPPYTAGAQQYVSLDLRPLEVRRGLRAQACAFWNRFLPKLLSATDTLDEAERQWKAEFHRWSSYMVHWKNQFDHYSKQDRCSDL

[2] = biological target: butyrylcholinesterase (BChE) from human serum (Homo sapiens, UniProt P06276); assay: biochemical; assay type: biochemical
butyrylcholinesterase (BChE) from human serum, sequence (P06276 29-602): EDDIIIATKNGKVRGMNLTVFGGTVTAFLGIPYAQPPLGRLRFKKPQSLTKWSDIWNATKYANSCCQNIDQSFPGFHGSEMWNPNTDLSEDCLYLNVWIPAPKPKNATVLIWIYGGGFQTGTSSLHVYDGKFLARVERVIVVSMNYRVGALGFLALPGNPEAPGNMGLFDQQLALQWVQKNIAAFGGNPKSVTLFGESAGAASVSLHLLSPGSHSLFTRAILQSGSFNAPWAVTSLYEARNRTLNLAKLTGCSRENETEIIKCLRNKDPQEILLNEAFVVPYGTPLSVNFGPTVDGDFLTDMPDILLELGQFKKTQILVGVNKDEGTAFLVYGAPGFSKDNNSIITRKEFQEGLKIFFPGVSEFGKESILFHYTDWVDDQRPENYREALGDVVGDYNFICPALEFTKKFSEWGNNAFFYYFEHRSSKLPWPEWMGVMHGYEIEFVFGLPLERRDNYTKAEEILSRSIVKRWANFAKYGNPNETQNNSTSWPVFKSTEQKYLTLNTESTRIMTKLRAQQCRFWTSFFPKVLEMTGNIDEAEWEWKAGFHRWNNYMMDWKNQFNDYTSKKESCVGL

human recombinant AChE = human recombinant AChE (Homo sapiens, UniProt P22303); assay: Action mechanism and inhibition constant Ki (Lineweaver-Burk method); assay type: biochemical
human recombinant AChE, sequence (P22303 32-614): as the sequence (P22303 32-614) above
Excerpt: Determination of the action mechanism and of the inhibition constant (Ki). […] To obtain an estimate of the competitive inhibition constant Ki, the Lineweaver-Burk method was used. […] The data obtained were plotted on a graph according to the Lineweaver-Burk method, that is indicating the reciprocal of the enzymatic velocity (1/v) as a function of the reciprocal of the substrate concentration (1/[ACTh)].

SH-SY5Y cells [3] = assay: Toxic effects, colorimetric MTT assay; assay type: cell-based; details: 24 hours; for effect on cellular viability (MTT): 0.1-50 μM
Method: The results are expressed as a percentage of cells with respect to the control.
The cellular viability was expressed as a percentage of control cells and calculated by the formula Ft/Fnt×100, where Ft=absorbance of treated neurones and Fnt=absorbance of non treated neurones.
The SH-SY5Y cells were routinely grown at 37° C. in a humidified incubator with 5% CO2 in Dulbecco's modified Eagle's medium supplemented with 10% foetal calf serum (FCS), glutamine 2 mM, penicillin […] and streptomycin 50 μg/mL.

SH-SY5Y cells [4] = assay: Intracellular antioxidant activity: ROS formation evoked by t-BuOOH (DCFH-DA probe); assay type: cell-based, human; details: for % intracellular ROS: percentage increase of ROS by t-BuOOH, mean±SD of three tests; for effect on ROS formation, in words: 0.1-50 μM for LA and 7, 0.1-5 μM for 15
Method: Significant inhibiting effects were obtained with concentrations of 7 or 5 μM (p<0.01), 10 μM and 50 μM (for both p<0.001).
The results are expressed as the percentage increase of intracellular ROS determined by the treatment with tert-butyl hydroperoxide. Data are reported as the mean±SD (standard deviation) of three tests independent of one another (treated against not treated; *p<0.01, **p<0.001). ^btox=cytotoxicity.

BACE1 (β-secretase) = biological target: T1, BACE1 (β-secretase) (Homo sapiens, UniProt P56817); assay: biochemical
T1 construct: host or cells: Baculovirus expression system
T1 sequence (P56817 46-501): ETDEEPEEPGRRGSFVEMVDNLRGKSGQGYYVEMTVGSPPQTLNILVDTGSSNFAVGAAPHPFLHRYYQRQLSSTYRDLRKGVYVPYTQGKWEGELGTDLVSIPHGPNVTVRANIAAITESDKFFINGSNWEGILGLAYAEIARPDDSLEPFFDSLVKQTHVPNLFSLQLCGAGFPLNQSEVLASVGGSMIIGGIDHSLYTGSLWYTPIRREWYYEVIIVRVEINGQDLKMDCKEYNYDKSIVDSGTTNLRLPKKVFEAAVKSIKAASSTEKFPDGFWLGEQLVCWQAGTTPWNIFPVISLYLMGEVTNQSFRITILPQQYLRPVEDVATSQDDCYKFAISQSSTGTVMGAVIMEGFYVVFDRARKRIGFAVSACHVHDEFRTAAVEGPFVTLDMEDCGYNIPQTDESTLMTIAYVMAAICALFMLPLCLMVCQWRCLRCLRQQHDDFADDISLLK
Method: Assay for the analysis of BACE activity
BACE1 (β-secretase) purified and expressed in Baculovirus in 50 mM Tris HCl (pH=7.5), 10% glycerol (5 Units)
Assay buffer: 50 mM Sodium Acetate, pH=4.5
20 μL of substrate were added to 20 μL of the compound to be tested (or to the buffer if preparing the control well)
To start the reaction, 20 μL of BACE1 enzyme were added to the well.
The mixture was incubated at 37° C. for 60 minutes.
20 μL of the solution were added to stop the reaction. Then the fluorescence signal was read.
BACE activity was measured with a fluorimetric analysis method using a multi-well spectrofluorimeter. The peptide substrate of the analysis mimes the APP protein which is the natural substrate of BACE.
The inhibition curves were obtained for each compound by plotting on a graph the inhibition percentages obtained with respect to the logarithm of the inhibitor concentration. The linear regression parameters were determined and, when possible, the value of IC50 was extrapolated (GraphPad Prism 3.0 GraphPad Software Inc.).
The value of IC50 was calculated using GraphPad Prism software.

[5] = biological target: T2, AChE-induced Aβ40 aggregation (Homo sapiens, UniProt P22303)
T2 sequence (P22303 32-614): as the sequence (P22303 32-614) above

[6] = biological target: T2, AChE-induced Aβ40 aggregation; assay: biochemical; details: for inhibition at 100 µM: read-out: % of inhibition ± SEM of AChE-induced Aβ40 aggregation
anti-NGF mice (AD11) = assay: Cholinergic deficit of anti-NGF mice: ChAT immunohistochemistry, cholinergic neurones in the basal forebrain; details: i.p., 15 days, doses of Table 6
Method: Immunohistochemistry was carried out to show the number of cholinergic neurones in the basal forebrain. For this purpose, sections were incubated with the monoclonal antibody anticholine acetyltransferase (1:500, Chemicon International Inc., Temecula, Calif.).

[7] = BChE from human serum, mean of two independent measurements, each in duplicate, read-out: IC50 BChE
[8] = human recombinant AChE, mean of two independent measurements, each in duplicate, read-out: IC50 AChE

Compound: O=C(CCCCC1CCSS1)NCCCNc1c2c(nc3cc(Cl)ccc13)CCCC2 (racemic) [Compound 7, 5-[1,2]dithiolan-3-yl-pentanoic acid [3-(6-chloro-1,2,3,4-tetrahydro-acridin-9-ylamino)-propyl]-amide]
- IC50 [1]: 0.253 nM
- IC50 [2, 7]: 10.8 nM
- Ki (human recombinant AChE): 0.155 ± 0.046 nM
- type of inhibition (Lineweaver-Burk) (human recombinant AChE): mixed type of competitive inhibition
- effect on cellular viability (MTT) (SH-SY5Y cells [3]): did not lead to variations in cellular viability; also recorded: do not influence cellular vitality
- % intracellular ROS (SH-SY5Y cells [4]; 0.1 μM): 99.50 ± 3.54%
- % intracellular ROS (SH-SY5Y cells [4]; 0.5 μM): 99.67 ± 7.02%
- % intracellular ROS (SH-SY5Y cells [4]; 1 μM): 96.67 ± 8.02%
- % intracellular ROS (SH-SY5Y cells [4]; 5 μM): 82.50 ± 7.78%
- % intracellular ROS (SH-SY5Y cells [4]; 10 μM): tox^b
- % intracellular ROS (SH-SY5Y cells [4]; 50 μM): tox^b
- effect on ROS formation, in words (SH-SY5Y cells [4]): inhibiting effect in ROS formation which depended strongly on the concentration
- inhibition of ROS formation (SH-SY5Y cells [4]; SH-SY5Y, t-BuOOH): 64%
- IC50 (BACE1 (β-secretase); substrate 250 nM, enzyme 1 U/mL, 60 minutes, 37° C., read-out: IC50 (nM) on BACE): 69.7 nM
- power versus other classic AChE inhibitors approved for AD (AChE-induced Aβ40 aggregation) [5]: significantly more powerful than other classic AChE inhibitors
- times less powerful than propidium (AChE-induced Aβ40 aggregation) [5]: 3
- IC50 [6]: 45000 ± 14600 nM
- inhibition at 100 µM [6]: 61.8 ± 0.8%
- recovery of the cholinergic deficit (number of cholinergic neurones in the basal forebrain) (anti-NGF mice (AD11)): did not allow the complete recovery of the cholinergic deficit

Compound: O=C(CCCCC1CCSS1)NCCNc1c2c(nc3ccccc13)CCCC2 (stereo not shown) [Compound 1, 5-[1,2]dithiolan-3-yl-pentanoic acid [2-(1,2,3,4-tetrahydro-acridin-9-ylamino)-ethyl]amide]
- IC50 [1, 8]: 97 nM
- IC50 [2, 7]: 47.5 nM

Compound: O=C(CCCCC1CCSS1)NCCCNc1c2c(nc3ccccc13)CCCC2 (stereo not shown) [Compound 2, 5-[1,2]dithiolan-3-yl-pentanoic acid [3-(1,2,3,4-tetrahydro-acridin-9-ylamino)propyl]amide]
- IC50 [1, 8]: 6.96 nM
- IC50 [2, 7]: 12 nM

Compound: O=C(CCCCC1CCSS1)NCCCCNc1c2c(nc3ccccc13)CCCC2 (stereo not shown) [Compound 3, 5-[1,2]dithiolan-3-yl-pentanoic acid [4-(1,2,3,4-tetrahydro-acridin-9-ylamino)-butyl]amide]
- IC50 [1, 8]: 35.2 nM
- IC50 ([2]; read-out: IC50 BChE): 5.04 nM

Compound: O=C(CCCCC1CCSS1)NCCCCCNc1c2c(nc3ccccc13)CCCC2 (stereo not shown) [Compound 4, 5-[1,2]dithiolan-3-yl-pentanoic acid [5-(1,2,3,4-tetrahydro-acridin-9-ylamino)-pentyl]-amide]
- IC50 [1, 8]: 38.4 nM
- IC50 ([2]; read-out: IC50 BChE): 1.48 nM

Compound: O=C(CCCCC1CCSS1)NCCCCCCNc1c2c(nc3ccccc13)CCCC2 (stereo not shown) [Compound 5, 5-[1,2]dithiolan-3-yl-pentanoic acid [6-(1,2,3,4-tetrahydro-acridin-9-ylamino)-hexyl]-amide]
- IC50 [1, 8]: 30.1 nM
- IC50 [2, 7]: 3.24 nM

Compound: O=C(CCCCC1CCSS1)NCCCCCCCNc1c2c(nc3ccccc13)CCCC2 (stereo not shown) [Compound 6, 5-[1,2]dithiolan-3-yl-pentanoic acid [7-(1,2,3,4-tetrahydro-acridin-9-ylamino)-heptyll]-amide]
- IC50 [2, 7]: 8.58 nM

Compound: Nc1c2c(nc3cc(Cl)ccc13)CC(CNC(=O)CCCCC1CCSS1)CC2 (stereo not shown) [Compound 8, 5-[1,2]dithiolan-3-yl-pentanoic acid (9-Amino-6-chloro-1,2,3,4-tetrahydro-acridin-3-ylmethyl)-amide]
- IC50 [1, 8]: 232 nM

Compound: NCCCNc1c2c(nc3cc(Cl)ccc13)CCCC2 [Compound 15, N^1-(6-chloro-1,2,3,4-tetrahydro-acridin-9-yl)-propane-1,3-diamine]
- IC50 ([1]; read-out: IC50 AChE): 21.5 nM
- decrease of cellular viability (SH-SY5Y cells [3]; 10 μM): 88%
- decrease of cellular viability (SH-SY5Y cells [3]; 50 μM): 99%
- effect on cellular viability (MTT) (SH-SY5Y cells [3]): has a neurotoxic effect
- % intracellular ROS (SH-SY5Y cells [4]; 0.1 μM): 88.75 ± 8.41%
- % intracellular ROS (SH-SY5Y cells [4]; 0.5 μM): 95.00 ± 5.20%
- % intracellular ROS (SH-SY5Y cells [4]; 1 μM): 77.00 ± 8.76%
- % intracellular ROS (SH-SY5Y cells [4]; 5 μM): 61.67 ± 9.02* %
- % intracellular ROS (SH-SY5Y cells [4]; 10 μM): 51.25 ± 9.21** %
- % intracellular ROS (SH-SY5Y cells [4]; 50 μM): 30.50 ± 9.04** %
- effect on ROS formation, in words (SH-SY5Y cells [4]): did not show any difference as regards ROS formation
- inhibition at 100 µM [6]: 25 ± 5%

Compound: CCN(CCCCCCNC(=O)CCCCC1CCSS1)Cc1ccccc1OC (stereo not shown) [Compound 18, 5-[1,2]dithiolan-3-yl-pentanoic acid {6-[Ethyl-(2-methoxy-benzyl)-amino]-hexyl}-amide]
- IC50 [1, 8]: 256 nM
- IC50 [2, 7]: 2490 nM
- inhibition at 100 µM [6]: 16.8 ± 2.2%
- recovery of the cholinergic deficit (number of cholinergic neurones in the basal forebrain) (anti-NGF mice (AD11)): significant recovery

Compound: CC(c1cccc(OCCCNC(=O)CCCCC2CCSS2)c1)N(C)C (stereo not shown) [Compound 19, 5-[1,2]dithiolan-3-yl-pentanoic acid {3-[3-(1-dimethylamino-ethyl)-phenoxy]-propyl}-amide]
- IC50 [1, 8]: 25200 nM
- IC50 [2]: 82400 nM
- inhibition at 100 µM [6]: 9 ± 6.6%
- recovery of the cholinergic deficit (number of cholinergic neurones in the basal forebrain) (anti-NGF mice (AD11)): did not allow the complete recovery of the cholinergic deficit

Compound: COc1cccc(C(C)N(C)CCCNC(=O)CCCCC2CCSS2)c1 (stereo not shown) [Compound 20, 5-[1,2]dithiolan-3-yl-pentanoic acid (3-{[1-(3-methoxy-phenyl)-ethyl]-methyl-amino}-propyl)-amide]
- IC50 [1, 8]: 74100 nM
- IC50 [2, 7]: 398 nM
- inhibition at 100 µM [6]: 15.6 ± 7.8%
- recovery of the cholinergic deficit (number of cholinergic neurones in the basal forebrain) (anti-NGF mice (AD11)): did not allow the complete recovery of the cholinergic deficit

Compound: O=C(CCCCc1cccs1)NCCCNc1c2c(nc3cc(Cl)ccc13)CCCC2 [Compound 21, 5-thiofen-2-yl-pentanoic acid [3-(6-chloro-1,2,3,4-tetrahydro-acridin-9-ylamino)-propyl]-amide]
- IC50 [1]: 2.66 nM
- IC50 [2, 7]: 30.6 nM
- inhibition at 100 µM [6]: 24.1 ± 5.7%

Compound: COc1cc2nc(Cl)nc(NCCCNC(=O)CCCCC3CCSS3)c2cc1OC (stereo not shown) [Compound 23, 5-[1,2]dithiolan-3-yl-pentanoic acid [3-(2-chloro-6,7-dimethoxy-chinazoline-4-ylamino)-propyl]-amide]
- IC50 [1]: 192000 nM
- inhibition at 100 µM [6]: 32.1 ± 3.9%

Compound: O=C(CCCC[C@@H]1CCSS1)NCCCNc1c2c(nc3cc(Cl)ccc13)CCCC2 [Compound 24]
- IC50 [1]: 0.23 nM
- power versus other classic AChE inhibitors approved for AD (AChE-induced Aβ40 aggregation) [5]: significantly more powerful than other classic AChE inhibitors
- inhibition at 100 µM [6]: 68 ± 3%

Compound: COc1ccc2c3c1O[C@H]1C[C@@H](O)C=C[C@@]31CCN(C)C2 [Galantamine]
- IC50 (BACE1 (β-secretase)): > 5000 nM

Compound: O=C(O)CCCCC1CCSS1 (stereo not shown) [LA, lipoic acid, reference compound]
- % of inhibition ± SEM of AChE-induced Aβ40 aggregation ([5]; compound 100 μM): <5%
- recovery of the cholinergic deficit (number of cholinergic neurones in the basal forebrain) (anti-NGF mice (AD11)): did not allow the complete recovery of the cholinergic deficit

Compound: CCN(C)C(=O)Oc1cccc([C@H](C)N(C)C)c1 [Rivastigmine]
- IC50 (BACE1 (β-secretase)): > 3000 nM

Compound: Nc1c2c(nc3ccccc13)CCCC2 [Tacrine, reference compound]
- IC50 (BACE1 (β-secretase)): > 4000 nM
- recovery of the cholinergic deficit (number of cholinergic neurones in the basal forebrain) (anti-NGF mice (AD11)): did not allow the complete recovery of the cholinergic deficit

Compound: CC[C@H](C)[C@H](NC(=O)[C@H](CCC(=O)O)NC(=O)[C@H](CCC(=O)O)NC(=O)[C@@H](NC(=O)[C@@H](N)CCCCN)[C@@H](C)O)C(=O)N[C@@H](CO)C(=O)N[C@@H](CCC(=O)O)C(=O)N[C@H](C(=O)N[C@@H](CC(N)=O)C(=O)N[C@@H](CC(C)C)[C@@H](O)CC(=O)N[C@H](C(=O)N[C@@H](C)C(=O)N[C@@H](CCC(=O)O)C(=O)N[C@@H](Cc1ccccc1)C(=O)O)C(C)C)C(C)C [peptide derivative of statin] (H-KTEEISEVN[Sta]VAEF-OH)
- IC50 (BACE1 (β-secretase)): 18 nM
